Like-named read-outs stand apart in the source and are kept apart here.
How the values were obtained:
[1] = tested on: Methylosinus trichosporium OB3b (NRRL B-11,196); assay: Stoichiometry of the epoxidation of propylene by a cell-suspension; format: cell-based; conditions: 3 min., 3.1 mg. protein, 3.6 μmoles propylene
Method: As a comparison the stoichiometry of the epoxidation of propylene by a cell-suspension of Methylosinus trichosporium OB3b (NRRL B-11,196) was determined as follows. The reaction mixture (3.0 ml.) contained 0.05 M sodium phosphate buffer, pH 7.0 and 3.6 μmoles of propylene. The reaction was initiated by the injection of 0.1 ml. of cell-suspension (3.1 mg. protein). A correction was made for the endogenous consumption of oxygen. The amount of oxygen consumed during the reaction (3 min.) was determined polarographically with a Clark oxygen electrode. The propylene consumed and the propylene oxide formed was estimated by gas chromatography. The propylene consumed was 0.29 μmoles, the oxygen consumed was 0.30 μmoles and the propylene oxide formed was 0.28 μmoles.

[2] = tested on: cell-free particulate fractions derived from the methylotrophic microorganisms; assay: Conversion of C3-C6 n-alkanes to sec. alcohols by cell-free particulate fractions: inhibitors and electron donors; format: biochemical
From the text: The conditions for preparing the cell suspensions or the cell-free particulate fractions from methane-grown methylotroph microorganisms is the same as described above. […] Tables XXV and XXVI show the conversion of C3 -C6 n-alkanes to the corresponding secondary alcohols using cell suspensions and cell-free particulate fractions, respectively, of methane-grown methylotroph microorganisms.

[3] = tested on: P(40) particulate fraction of Methylosinus sp. (CRL-15, NRRL B-11,202); assay: Oxidation of n-alkenes and n-alkanes by P(40) particulate fraction; format: biochemical; conditions: for Rate of Product Formation: substrate oxidized to its epoxide or alcohol, 30° C.
[4] = tested on: P(40) particulate fraction of Methylosinus sp. (CRL-15, NRRL B-11,202); assay: Stoichiometry of propylene epoxidation and methane hydroxylation by P(40) fraction; format: biochemical; conditions: 5.0 μmoles substrate
Method: The particulate P(40) fraction of Methylosinus sp. (CRL-15, NRRL B-11,202) was used to determine the stoichiometry of hydroxylation and epoxidation reactions. The stoichiometry of methane or propylene-dependant NADH oxidation, oxygen consumption and product formation was approximately 1:1:1 Table XIV. This is consistent with methane or propylene oxygenation being catalyzed by a mono-oxygenase.
^a Under identical condition of reaction, the estimation of NADH
oxidized was carried out spectrophotometrically, the estimation of oxygen
consumed was measured polarographically, and estimation of product formed
was carried out by gas chromatography.

[5] = tested on: Methylobacter vinelandii (CRL M5Y NRRL B-11,218); assay: Microbiological oxidation of cyclic hydrocarbons by methane-grown washed cells; format: cell-based
From the text: Methylobacter vinelandii (CRL M5Y NRRL B-11,218) was aerobically grown in a methane-containing nutrient medium in the manner described in Example 1 and the methane-grown washed cells were contacted under aerobic conditions with cyclohexane, benzene and toluene.

[6] = tested on: secondary alcohol dehydrogenase (SADH); assay: Purified secondary alcohol dehydrogenase activity (formation of reduced NAD); format: biochemical, Pseudomonas sp. ATCC 21439
Method: Secondary alcohol dehydrogenase (SADH) from an obligate methanol utilizer, Pseudomonas sp. ATCC 21439 was purified as follows. […] 0.05 M sodium phosphate buffer, pH 7.0 with 0.5 mM dithiothretol (buffer A) and were disrupted sonically (5×1 min.). The crude extract was separated by centrifugation. The crude extract was heat-treated at 50° C. in a water bath for 10 minutes. The resulting precipitate was removed by centrifugation. To the supernatant solution, 25 ml of protamine sulfate solution (2% solution in 0.1 M Tris base) was added dropwise with continuous stirring. After standing for 30 minutes, the extract was centrifuged. The supernatant solution was fractionated with solid ammonium sulfate. The material precipitating between 30 and 60% saturation was collected and was dialized overnight against buffer A. The The dialized material was applied to a DEAE-cellulose column (3 cm by 35 cm) that had been equilibrated with buffer A. The secondary alcohol dehydrogenase activity was eluted in the void volume. This DEAE-cellulose eluate was concentrated by ammonium sulfate fractionation. Material precipitating between 30 and 50% ammonium sulfate saturation was collected by centrifugation and dialyzed overnight against A. This fraction was further washed and filtered through an Amicon unit with XM 50 membrane. The concentrated fraction (6 ml) inside the Amicon unit was applied to an Affi-Gel Blue column (0.8 cm×18 cm) which had been equilibrated with buffer A for affinity chromatography. The column was washed overnight with buffer A (0.18 ml./min.) and then was eluted with buffer A containing 5 mM NAD. Each 1 ml. fraction was collected.
The purified secondary alcohol dehydrogenase enzyme (SADH) may be used directly for converting C3 -C6 secondary alcohols to the corresponding methyl ketones by the procedures described above; however, a source of NAD^+ must be added to the reaction medium. One can determine the NAD-linked secondary alcohol dehydrogenase activity with a fluorescence spectrophotometer (Perkin Elmer, Model MPF 44A) by following the formation of reduced NAD (Ex 340 nm, Em 460 nm). The assay system (3 ml.) will typically contain: sodium phosphate buffer pH 7.0, 150 μmol; NAD 1.0 μmol; a given amount of enzyme preparation; and 20 μmol secondary alcohol. The reaction is started by the addition of secondary alcohol. One unit of SADH enzyme activity represents the reduction of one nmole NAD per minute.
The effect of metal-chelating agents and thioreagents on the activity of the purified SADH enzyme were studied. […] The possibility of ethanol or n-propanol as an inhibitor was studied.

[7] = tested on: cell-free extracts of strain ATCC-21439
Method: The reaction mixtures 3 ml (1.0 mg protein) were incubated at 30°
C. for 10 min. (exp. 1) and for 20 min. (exp. 2) in the presence of 1.0
^a Determined gas chromatographically.
^b Determined fluorescence spectrophotometrically. Endogenous
consumption of NAD was corrected.

[8] = tested on: secondary alcohol dehydrogenase; assay: Purified yeast secondary alcohol dehydrogenase: substrates, electron acceptors, inhibitors, stoichiometry; format: biochemical, Pichia sp. NRRL Y-11,328
Method: Large scale cultures of Pichia sp. NRRL Y-11,328 were grown with aeration at 30° C. in a 14-liter New Brunswick f fermentor in a mineral salt medium containing methanol (0.4%, v/v) as the sole carbon source. The cells (200 g., wet weight) were suspended in […] sodium phosphate buffer, pH 7.0, containing 1 mM dithiothreitol (buffer A), and crude extracts were prepared as described previously. To the crude extracts, 18 ml. of protamine sulfate solution [2% solution in 0.1 M tris (hydroxymethyl) aminomethane (tris) base] was added dropwise with continuous stirring. After standing for 30 min., the extracts were centrifuged at 20,000×g. for 60 min. The supernatant solution was fractionated with solid ammonium sulfate. Extracts were brought to 50% of saturation with respect to ammonium sulfate by addition of 313 g. of the salt per liter of extract. Precipitated proteins was removed by centrifugation, and 137 g. of ammonium sulfate was added per liter of the supernatant liquid to bring it to 70% of saturation. Material precipitating between 50 and 70% of saturation was collected by centrifugation and dissolved in buffer A. This preparation was dialyzed overnight against buffer A, and the dialyzed material was applied to a DEAE-cellulose column (5×40 cm) that had been equilibrated with buffer A. The sample was washed with 200 ml. of buffer A and eluted with 2 liters of buffer A that contained NaCl in a linear gradient running from a concentration of 0 to 0.5 M. Fractions of 15 ml. were collected. Fractions containing secondary alcohol dehydrogenase activity were pooled and were termed DEAE-cellulose eluate. The DEAE-cellulose eluate was concentrated by ammonium sulfate fractionation.
Secondary alcohol dehydrogenase activity was measured spectrophotometrically at 340 nm with a NAD^+ as an electron acceptor. The reaction mixture, in a total 3.0 ml., contained 50 mM phosphate buffer, pH 8.0, 5μ moles NAD^+, crude extracts, and subtrate. The reactions were started by addition of 100 μl of 0.1 M substrate and the rate of NAD^+ reduction was measured. Protein concentration was determined by the method of Lowry et al.
The substrate specificity of the purified secondary alcohol dehydrogenase was examined spectrophotometrically.

[9] = Oxidation of methane and lower alkenes by washed cell suspensions of methane-grown methylotrophic strains; format: cell-based; conditions: methane-grown methylotrophic microorganisms
Method: The isolates had been maintained on agar plates under an atmosphere of methane and air having a 1:1 v/v gas ratio which had been transferred every two weeks. The gaseous phase of the inoculated flasks was then replaced with a gas mixture comprised of methane and air having a ratio of 1:1 on a v/v basis.
The cells were harvested by centrifugation at 10,000×g. at 4° C. for 30 minutes. The cell pellet was washed twice with a 0.15 M phosphate buffer at a pH of 7.0 (containing 0.002 M MgCl2). The washed cells were then suspended in a 0.15 M phosphate buffer at pH 7.0.
A 0.5 ml sample of each washed cell suspension (2 mg cells) was put into 10 ml vials at 4° C. which were sealed with a rubber cap. The gaseous phase of the vials was removed with vacuum and then was replaced with a gas mixture of the oxidative substrate (e.g., methane) and oxygen at a 1:1 v/v ratio. The vials were then incubated at 30° C. on a rotary shaker at 300 rpm. Samples of product (3 μl) were withdrawn periodically with a microsyringe and the products were analyzed by gas chromatography (ionization flame detector column).
The newly discovered and isolated microorganism strains of the present invention were each grown aerobically in the presence of methane in the manner described above. […]

[10] = tested on: Methylobacterium organophilum (CRL 26, NRRL B-11,222); assay: Effect of inhibitors on epoxidation of propylene and hydroxylation of methane, cell-containing enzyme preparation; format: cell-based; conditions: NRRLB11, inhibitor 1 mM, 1 hour at 30° C.
[11] = tested on: methanol-grown Methylococcus capsulatus CRL M1 (NRRL B-11,219); assay: Effect of metal-chelating agents and other inhibitors on production of 2-butanone by cell suspensions; format: cell-based; conditions: NRRLB11, read-out: Inhibition (%) of production of 2-butanone, 1 mM
[12] = tested on: Methylococcus capsulatus (CRL Ml, NRRL B-11,219); assay: Effect of inhibitors on epoxidation of propylene and hydroxylation of methane, cell-containing enzyme preparation; format: cell-based; conditions: Methylococcus capsulatus, NRRLB11, inhibitor 1 mM, 1 hour at 30° C.
[13] = tested on: P(40) particulate fraction of Methylosinus sp. (CRL-15, NRRL B-11,202); assay: Effect of inhibitors on propylene epoxidation and methane hydroxylation by P(40) fraction; format: biochemical; conditions: inhibitor 10^-3 M
Method: The oxidation of methane and propylene by particulate [(P)40 and(P)80] fractions and soluble [S(80)] fraction was measured at 30° C. by estimating the production of methanol and propylene oxide, respectively. The reaction mixtures contained in 1.0 ml: 150 mM potassium phosphate buffer, pH 7.0 containing 5 mM MgCl2, 0.6 ml; 10 μmoles NADH, and cellular fraction.
Reaction mixtures were contained in 10 ml vials at 4° C. Vials were sealed with rubber caps. The gaseous phase in the vials was removed using vacuum and then was replaced with a gas mixture of methane or propylene and oxygen at a 1:1, v/v ratio. Oxidation of other gaseous n-alkanes and n-alkenes was examined as described above. For liquid substrates, 10 μl of substrate was used directly. Vials were then incubated at 30° C. on a rotary shaker at 200 RPM.
It has been reported that the oxidation of methane by cell suspensions of methane-utilizing bacteria was inhibited by various metal-binding or metal-chelating agents (Patel et al., J. Bacteriol. 126: 1017-1019 (1976)). […] (CRL-15, NRRL B-11,202) was examined.

[14] = tested on: Methylosinus trichosporium OB3b (NRRL B-11,196); assay: Effect of inhibitors on epoxidation of propylene and hydroxylation of methane, cell-containing enzyme preparation; format: cell-based; conditions: NRRLB11, inhibitor 1 mM, 1 hour at 30° C.
[15] = tested on: cell suspensions of C1 -utilizers; assay: Optimal conditions and inhibition of 2-butanone production from 2-butanol by cell suspensions; format: cell-based
From the text: The following summarizes tests conducted on the optimal conditions for the production of methyl ketones from C3 -C6 sec. alcohols.

[16] = read-out: % Inhibition, Epoxidation
[17] = read-out: % Inhibition, Hydroxylation

C=CC [Propylene]
oxygen consumed [1]: 0.30 µmol
propylene consumed [1]: 0.29 µmol
propylene oxide formed [1]: 0.28 µmol
inhibition of the conversion of the n-alkanes to the sec. alcohols [2]: inhibit
Propylene Oxide Produced ([3]; substrate competition, gas phase as labelled): 4.3 μmoles/hr/mg. protein
Rate of Product Formation [3]: 4.1 μ moles/hr/mg of protein
NADH Oxidized [4]: 5.0 µmol
O2 Consumed [4]: 4.8 µmol
Product formed [4]: 4.5 µmol

Cc1ccccc1 [toluene]
oxidative conversion rate of cyclic hydrocarbon (cyclohexane to cyclohexanol) [5]: no oxidative conversion was detected

CCC(C)O (stereo not drawn) [2-butanol]
substrate specificity of purified SADH [6]: highest
Km ([6]; read-out: Km values): 250 µM
2-Butanol Consumed ([7]; experiment 1, 10 min.): 260 nmol
2-Butanol Consumed ([7]; experiment 2, 20 min.): 530 nmol
NAD Consumed ([7]; experiment 2, 20 min.): 540 nmol
NAD^+ Reduced [8]: 5.9 µmol
Product formed [8]: 5.7 µmol
oxidation by the purified secondary alcohol dehydrogenase [8]: catalyzed the oxidation

c1ccccc1 [benzene]
oxidative conversion rate of cyclic hydrocarbon (cyclohexane to cyclohexanol) [5]: no oxidative conversion was detected

C1CCCCC1 [Cyclohexane]
oxidative conversion rate of cyclic hydrocarbon (cyclohexane to cyclohexanol) [5]: 1.5 μmoles/2 hr./mg. protein

C=CCCCC [hexene-1]
epoxide product from the substrate [9]: did not produce any detectable epoxide product

C=CCCC [1-Pentene]
epoxide product from the substrate [9]: did not produce any detectable epoxide product
Rate of Product Formation [3]: 0 μ moles/hr/mg of protein

c1cnc2c(c1)ccc1cccnc12 [1,10-Phenanthroline]
% inhibition of SADH activity ([6]; purified SADH, each inhibitor 1 mM, measured spectrofluorometrically): 95%
inhibition at 1000 µM [10, 16]: 90%
inhibition at 1000 µM [10, 17]: 90%
inhibition of the conversion of the n-alkanes to the sec. alcohols [2]: inhibited
inhibition at 1000 µM [11]: 95%
inhibition at 1000 µM [12, 16]: 95%
inhibition at 1000 µM [12, 17]: 95%
% Inhibition, Methane-Hydroxylating Activity [13]: 90%
% Inhibition, Propylene-Epoxidizing Activity [13]: 93%
inhibition at 1000 µM [14, 16]: 90%
inhibition at 1000 µM [14, 17]: 92%
inhibition of secondary alcohol dehydrogenase activity [8]: strongly inhibited
inhibition of production of 2-butanone from 2-butanol by cell suspensions of the strains tested [15]: inhibited
